Each structure is given as a SMILES string. Activity calls are given as the source filed them. The calls are words filed in the database; no cut-off is given here.

Data set [1] deals with Rattus norvegicus. The data set is described as follows: Analgetic activity in ip dosed albino rat measured 15 mins interval by tail-flick method. To be noted: 0.25 h. It counts as functional. Background: Hot-plate and tail-flick tests time the reaction to a heat stimulus.
The nature of data set [2]: Toxicity in ip dosed albino rat. Format: organism-based. The settings on record: in vivo.
Data set [3] has as its system Rattus norvegicus. Put plainly: Analgetic activity in albino rat at 100 mg/kg, ip measured 15 mins interval by tail-flick method. It counts as functional, organism-based. Further details: dose 100 mg/kg.

In general, ED50 refers to the midpoint of the dose-response relation. One may read the LD50 as the dose expected to kill half of the subjects tested. In the case of `CCC(=O)OC1(c2ccccc2)CCN(C)CC1C` (racemic) [ALPHAPRODINE], the 50% effect level in the data set with Rattus norvegicus [1] (ED50) was put at a dose of 1.4 mg/kg. Besides, the LD50 in data set [2] is 22 mg/kg.
For `CCC(=O)O[C@]1(c2ccccc2)C[C@H]2CC[C@H]1N(C)C2` (relative stereo), the outcome in the data set on Rattus norvegicus [3] was inactive.
The same measure, in the same setting: under `CCC(=O)O[C@@]1(c2ccccc2)C[C@H]2CC[C@H]1N(Cc1ccccc1)C2` (relative stereo) stands “inactive”.
Turning to `CCC(=O)O[C@@]1(c2ccccc2)C[C@H]2CC[C@H]1N(C)C2` (relative stereo), the ED50 in the data set with Rattus norvegicus [1] came to 3.1 mg/kg. For the same molecule, in the data set with Rattus norvegicus [3], the result was inactive. Also, the LD50 in data set [2] is 12.3 mg/kg.
On to `CCC(=O)O[C@@]1(c2ccccc2)C[C@H]2CC[C@H]1CN2C`, for which the result in the data set with Rattus norvegicus [3] was inactive.

Source of the values: ChEMBL document CHEMBL3272158, “2-Azabicyclo (2.2.2)octane analogues of the prodine analgetics” (J Med Chem, 1976).
